Results as given in US20220162191A1, “SMALL MOLECULE MODULATORS OF IL-17” (LEO PHARMA A/S, priority 2019, published 2022).

Target: T1, human IL-17AA (Homo sapiens, UniProt Q16552)
T1 construct: host or cells: HEK (human embryonic kidney) cells
T1 sequence (Q16552 24-155) 1: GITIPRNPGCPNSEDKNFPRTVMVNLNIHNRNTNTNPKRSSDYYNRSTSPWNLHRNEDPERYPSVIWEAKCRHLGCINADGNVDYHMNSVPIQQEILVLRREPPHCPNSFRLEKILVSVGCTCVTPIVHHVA
T1 sequence (Q16552 24-155) 2: T1 sequence (Q16552 24-155) 1
Assay: IL-8 release assay in human epithelial keratinocytes adult (HEKa)
Format: cell-based
Details: 3 ng/ml human IL-17AA + 10 ng/ml human TNFalpha, 68-72 h, IL-8 by HTRF, read-out: Rel EC50 L-8 release assay
How it was run: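 IL-8 secretion, quantified by HTRF (665/620 nm) as percent of controls, served as the readout after 68–72 h culture of HEKa cells with compound plus IL-17AA (3 ng/ml final) and TNF-alpha (10 ng/ml final). Four-parameter logistic curves gave relative IC50 and Emax.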

Row | SMILES | EC50 [nM]
1 | Cc1n[nH]c(C)c1-c1ccc(NC(=O)[C@@H](NC(=O)C2(F)CC2)[C@@H]2CCc3ccc(-c4cc(N5CC(F)(F)C5)ncn4)cc32)cc1 [Example 375, N-[(1S)-1-[(1R)-6-[6-(3,3-difluoroazetidin-1-yl)pyrimidin-4-yl]indan-1-yl]-2-[4-(3,5-dimethyl-1H-pyrazol-4-yl)anilino]-2-oxo-ethyl]-1-fluoro-cyclopropanecarboxamide] | 100 to 1000
2 | Cc1n[nH]c(C)c1-c1ccc(NC(=O)[C@@H](NC(=O)C2(F)CC2)[C@@H]2CCCc3ccc(-c4ccc(=O)n(C(C)C)c4)cc32)cc1 [Example 27, N-[(1S)-2-[4-(3,5-dimethyl-1H-pyrazol-4-yl)anilino]-1-[(1R)-7-(1-isopropyl-6-oxo-3-pyridyl)tetralin-1-yl]-2-oxo-ethyl]-1-fluoro-cyclopropanecarboxamide] | < 100
3 | Cc1n[nH]c(C)c1-c1ccc(NC(=O)[C@@H](NC(=O)C2(F)CC2)[C@@H]2CCc3ccc(-c4cnn(C(C)(C)CN)c4)cc32)cc1 [Example 24, N-[(1S)-1-[(1R)-6-[1-(2-amino-1,1-dimethyl-ethyl)pyrazol-4-yl]indan-1-yl]-2-[4-(3,5-dimethyl-1H-pyrazol-4-yl)anilino]-2-oxo-ethyl]-1-fluoro-cyclopropanecarboxamide] | 100 to 1000
4 | Cn1cncc1-c1ccc(NC(=O)C(Cc2cc(-c3ccnc(N4CC5(CNC5)C4)c3)ccc2Cl)NC(=O)c2ccnn2C)cc1 (centres unmarked) [Example 194, N-[1-[[2-chloro-5-[2-(2,6-diazaspiro[3.3]heptan-6-yl)-4-pyridyl]phenyl]methyl]-2-[4-(3-methylimidazol-4-yl)anilino]-2-oxo-ethyl]-2-methyl-pyrazole-3-carboxamide] | 100 to 1000
5 | Cc1cnn(C)c1-c1ccc(NC(=O)[C@@H](NC(=O)C2(F)CC2)[C@@H](c2cccc(-c3cncc(N4C[C@@H]5C[C@H]4CO5)c3)c2)C2CC2)cc1 [Example 347, N-[(1S)-1-[(R)-cyclopropyl-[3-[5-[(1S,4S)-2-oxa-5-azabicyclo[2.2.1]heptan-5-yl]-3-pyridyl]phenyl]methyl]-2-[4-(2,4-dimethylpyrazol-3-yl)anilino]-2-oxo-ethyl]-1-fluoro-cyclopropanecarboxamide] | < 100
6 | Cc1n[nH]c(C)c1-c1ccc(NC(=O)[C@H](Cc2cc(-c3cccc(CN4C[C@H]5C[C@@H]4CN5)c3)ccc2Cl)NC(=O)C2(F)CC2)cc1 [Example 310, N-[(1S)-1-[[2-chloro-5-[3-[[(1R,4R)-2,5-diazabicyclo[2.2.1]heptan-2-yl]methyl]phenyl]phenyl]methyl]-2-[4-(3,5-dimethyl-1H-pyrazol-4-yl)anilino]-2-oxo-ethyl]-1-fluoro-cyclopropanecarboxamide] | 100 to 1000
7 | Cc1n[nH]c(C)c1-c1ccc(NC(=O)[C@@H](NC(=O)c2ccnn2C)[C@@H]2CCCc3ccc(-c4ccc(=O)n(C(C)C)c4)cc32)cc1O [Example 46, N-[(1S)-2-[4-(3,5-dimethyl-1H-pyrazol-4-yl)-3-hydroxy-anilino]-1-[(1R)-7-(1-isopropyl-6-oxo-3-pyridyl)tetralin-1-yl]-2-oxo-ethyl]-2-methyl-pyrazole-3-carboxamide] | < 100
8 | CC(C)n1cc(-c2ccc(Cl)c(C[C@H](NC(=O)CC3CCC3)C(=O)Nc3ccc(-c4nncn4C)cc3)c2)ccc1=O [Example 127, (2S)-3-[2-chloro-5-(1-isopropyl-6-oxo-3-pyridyl)phenyl]-2-[(2-cyclobutylacetyl)amino]-N-[4-(4-methyl-1,2,4-triazol-3-yl)phenyl]propanamide] | > 1000
9 | C[C@H]1CN(c2cc(-c3ccc(Cl)c(C[C@H](NC(=O)c4ccnn4C)C(=O)Nc4ccc(-c5cncn5C)cc4)c3)ccn2)CCN1 [Example 209, N-[(1S)-1-[[2-chloro-5-[2-[(3S)-3-methylpiperazin-1-yl]-4-pyridyl]phenyl]methyl]-2-[4-(3-methylimidazol-4-yl)anilino]-2-oxo-ethyl]-2-methyl-pyrazole-3-carboxamide] | 100 to 1000
10 | CC(C)n1cc(-c2ccc(Cl)c(CC(NC(=O)c3ccnn3C)C(=O)Nc3ccc(-c4cncn4C)cc3)c2)ccc1=O (centres unmarked) [Example 79, N-[1-[[2-chloro-5-(1-isopropyl-6-oxo-3-pyridyl)phenyl]methyl]-2-[4-(3-methylimidazol-4-yl)anilino]-2-oxo-ethyl]-2-methyl-pyrazole-3-carboxamide] | 100 to 1000
11 | Cn1cnnc1-c1ccc(NC(=O)C(Cc2cc(-c3ccc(O)c(CN4CCOCC4)c3)ccc2Cl)NC(=O)c2ccnn2C)cc1 (centres unmarked) [Example 130, N-[1-[[2-chloro-5-[4-hydroxy-3-(morpholinomethyl)phenyl]phenyl]methyl]-2-[4-(4-methyl-1,2,4-triazol-3-yl)anilino]-2-oxo-ethyl]-2-methyl-pyrazole-3-carboxamide] | 100 to 1000
12 | CN1CCOC[C@H]1c1cccc(-c2ccc(Cl)c(C[C@H](NC(=O)c3ccnn3C)C(=O)Nc3ccc(-c4cncn4C)cc3)c2)c1 [Example 218, N-[(1S)-1-[[2-chloro-5-[3-[(3R)-4-methylmorpholin-3-yl]phenyl]phenyl]methyl]-2-[4-(3-methylimidazol-4-yl)anilino]-2-oxo-ethyl]-2-methyl-pyrazole-3-carboxamide] | 100 to 1000
13 | CC(C)n1cc(-c2ccc3c(c2)[C@@H]([C@@H](NC(=O)c2ccnn2C)C(=O)Nc2ccc(-c4cncn4C)cc2)CCC3)ccc1=O [Example 48, N-[(1R)-1-[(1S)-7-(1-isopropyl-6-oxo-3-pyridyl)tetralin-1-yl]-2-[4-(3-methylimidazol-4-yl)anilino]-2-oxo-ethyl]-2-methyl-pyrazole-3-carboxamide] | > 1000

More lines, now with the values ahead:

Row | EC50 [nM] | SMILES
14 | < 100 | Cn1cncc1-c1ccc(NC(=O)[C@H](Cc2cc(-c3ccnc(C(C)(O)C4CC4)c3)ccc2Cl)NC(=O)c2ccnn2C)cc1 (stereo partly drawn) [Example 141, N-[(1S)-1-[[2-chloro-5-[2-(1-cyclopropyl-1-hydroxy-ethyl)-4-pyridyl]phenyl]methyl]-2-[4-(3-methylimidazol-4-yl)anilino]-2-oxo-ethyl]-2-methyl-pyrazole-3-carboxamide]
15 | < 100 | Cn1cncc1-c1ccc(NC(=O)C(Cc2cc(-c3cccc(C(C)(C)O)c3)ccc2Cl)NC(=O)c2ccnn2C)cc1 (centres unmarked) [Example 179, N-[1-[[2-chloro-5-[3-(1-hydroxy-1-methyl-ethyl)phenyl]phenyl]methyl]-2-[4-(3-methylimidazol-4-yl)anilino]-2-oxo-ethyl]-2-methyl-pyrazole-3-carboxamide]
16 | 100 to 1000 | Cc1nocc1-c1ccc(NC(=O)C(Cc2cc(-c3ccc(=O)n(C(C)C)c3)ccc2Cl)NC(=O)c2ccnn2C)cc1 (centres unmarked) [Example 78, N-[1-[[2-chloro-5-(1-isopropyl-6-oxo-3-pyridyl)phenyl]methyl]-2-[4-(3-methylisoxazol-4-yl)anilino]-2-oxo-ethyl]-2-methyl-pyrazole-3-carboxamide]
17 | 100 to 1000 | Cc1cnn(C)c1-c1ccc(NC(=O)[C@@H](NC(=O)C2(F)CC2)[C@@H]2CCCc3ccc(-c4ccnc(N5C[C@@H]6C[C@H]5CN6)c4)cc32)cc1 [Example 392, N-[(1S)-1-[(1R)-7-[2-[(1S,4S)-2,5-diazabicyclo[2.2.1]heptan-2-yl]-4-pyridyl]tetralin-1-yl]-2-[4-(2,4-dimethylpyrazol-3-yl)anilino]-2-oxo-ethyl]-1-fluoro-cyclopropanecarboxamide]
18 | 100 to 1000 | CC(C)n1cc(-c2cccc(C(c3ccccc3)C(NC(=O)c3ccnn3C)C(=O)Nc3ccc(-c4cncn4C)cc3)c2)ccc1=O (single isomer, unassigned) [Example 230, N-[1-[[3-(1-isopropyl-6-oxo-3-pyridyl)phenyl]-phenyl-methyl]-2-[4-(3-methylimidazol-4-yl)anilino]-2-oxo-ethyl]-2-methyl-pyrazole-3-carboxamide]
19 | 100 to 1000 | CC(C)COC(=O)N[C@@H](Cc1cc(-c2ccc(=O)n(C(C)C)c2)ccc1Cl)C(=O)Nc1ccc(-c2nncn2C)cc1 [Example 100, isobutyl N-[(1S)-1-[[2-chloro-5-(1-isopropyl-6-oxo-3-pyridyl)phenyl]methyl]-2-[4-(4-methyl-1,2,4-triazol-3-yl)anilino]-2-oxo-ethyl]carbamate]
20 | 100 to 1000 | CC(C)c1cc(-c2ccc(Cl)c(CC(NC(=O)c3ccnn3C)C(=O)Nc3ccc(-c4nncn4C4CC4)cc3)c2)ccn1 (centres unmarked) [Example 74, N-[1-[[2-chloro-5-(2-isopropyl-4-pyridyl)phenyl]methyl]-2-[4-(4-cyclopropyl-1,2,4-triazol-3-yl)anilino]-2-oxo-ethyl]-2-methyl-pyrazole-3-carboxamide]
21 | 100 to 1000 | Cn1cncc1-c1ccc(NC(=O)C(Cc2cc(-c3ccnc(N4CCCC4)c3)ccc2Cl)NC(=O)c2ccnn2C)cc1 (centres unmarked) [Example 146, N-[1-[[2-chloro-5-(2-pyrrolidin-1-yl-4-pyridyl)phenyl]methyl]-2-[4-(3-methylimidazol-4-yl)anilino]-2-oxo-ethyl]-2-methyl-pyrazole-3-carboxamide]
22 | < 100 | Cc1n[nH]c(C)c1-c1ccc(NC(=O)[C@@H](NC(=O)c2ccnn2C)[C@@H]2CCc3ccc(-c4ccc5c(c4)CCNC5)cc32)cc1 [Example 17, N-[(1S)-2-[4-(3,5-dimethyl-1H-pyrazol-4-yl)anilino]-2-oxo-1-[(1R)-6-(1,2,3,4-tetrahydroisoquinolin-6-yl)indan-1-yl]ethyl]-2-methyl-pyrazole-3-carboxamide]
23 | 100 to 1000 | CC(C)n1cc(-c2ccc3c(c2)[C@H]([C@H](NC(=O)c2ccnn2C)C(=O)Nc2ccc(-c4cncn4C)cc2)CCC3)ccc1=O [Example 44, N-[(1S)-1-[(1R)-7-(1-isopropyl-6-oxo-3-pyridyl)tetralin-1-yl]-2-[4-(3-methylimidazol-4-yl)anilino]-2-oxo-ethyl]-2-methyl-pyrazole-3-carboxamide]
